Test results from US20210145771A1, “N-(3-(2-(4-CHLOROPHENOXY)ACETAMIDO)BICYCLO[1.1.1] PENTAN-1-YL)-2-CYCLOBUTANE-1- CARBOXAMIDE DERIVATIVES AND RELATED COMPOUNDS AS ATF4 INHIBITORS FOR TREATING CANCER AND OTHER DISEASES” (GlaxoSmithKline Intellectual Property Development Limited, priority 2017, published 2021).
Counter-ions that a name gives are not always drawn.

System: ATF4 pathway
Test: ATF4 Cell Based Assay (ATF4 reporter assay, NanoLuc luciferase)
Settings: SH-SY5Y-ATF4-NanoLuc cells challenged with Thapsigargin for 14-18 hours; average of two or more experimental runs; read-out: average ATF4 pathway inhibitory activity (IC50)
From the text: The ATF4 reporter assay measures the effect of Thapsigargin induced cellular stress on ATF4 expression. For this reporter assay, a stable cell line was created by transfecting SH-SY5Y cells with a plasmid containing the NanoLuc® luciferase gene fused to the 5′-UTR of ATF4, under the control of the CMV promoter. The ATF4 5′-UTR contains two open reading frames which mediate the cellular stress-dependent translation of the reporter gene. Clones stably expressing the reporter construct were isolated and selected based on the luminescence response to thapsigargin and inhibition of this signal by test compounds. Briefly, SH-SY5Y-ATF4-NanoLuc cells were challenged with Thapsigargin for 14-18 hours to determine the stress effect with or without test compounds.
Cells were propagated in growth media consisting of 90% DMEM F12 (InVitrogen #11320-033), 10% Fetal Bovine Serum (Gibco #10438-026), 5 mM Glutamax (Gibco #35050-061), 5 mM Hepes, (Gibco #15630-080), and 0.5 mg/ml Geneticin (Gibco #10131-027). Cells were prepared for the assay by removing all media from cells, washing the plated cells with phosphate buffered saline, and detached by adding a solution comprised of 10% Tryple express solution (InVitrogen12604-021) and 90% enzyme-free cell dissociation buffer HANKS base (Gibco 13150-016). The trypsin was deactivated by adding assay media comprised of 90% phenol-red free DMEM F12 (InVitrogen, 11039), 10% Fetal Bovine Serum (Gibco #10438-026), (5 mM Glutamax (Gibco #35050-061), 5 mM Hepes, (Gibco #15630-080), and 0.5 mg/ml Geneticin (Gibco #10131-027). Suspended cells were spun down at 300 g for 5 min, the supernatant was removed and the cell pellet was suspended in warm media (30-37° C.) comprised as above but without 10% Fetal Bovine Serum to a concentration of 1e6 cells/ml.
Assay plates were prepared by adding 250 nL of compound stock solution in 100% DMSO to each well, followed by dispensing 20 microliters/well cell suspension to deliver 15-20 k cell/well. Cells were incubated for 1 hour at 37° C. […]
The measurement of luciferase produced by the ATF4 constructs was measured as follows. Aliquots of the Nano-Glo reagent (Nano-Glo® Luciferase Assay Substrate, Promega, N113, Nano-Glo® Luciferase Assay Buffer, Promega, N112 (parts of Nano-Glo® Luciferase Assay System, N1150) were brought to room temperature, the substrate and buffer were mixed according to manufacturer's instructions. The cell plates were equilibrated to room temperature. 25 microliters/well of the mixed Nano-Glo reagent were dispensed into assay wells and pulse spun to settle contents and the plate was sealed with film. The plates were incubated at room temperature for 1 hour before detecting luminescence on an EnVision® plate reader.

| IC50 [µM] | SMILES |
| --- | --- |
| 6.32 | Cc1ccc(OCC(=O)NC23CC(NC(=O)COC4(C)CC4)(C2)C3)cc1 [Example 20, 2-(1-methylcyclopropoxy)-N-(3-(2-(p-tolyloxy)acetamido)bicyclo[1.1.1]pentan-1-yl)acetamide] |
| 4.76 | O=C(COc1ccc(Cl)cc1)NC12CC(NC(=O)C3CCCO3)(C1)C2 (stereo not shown) [Example 32, N-(3-(2-(4-chlorophenoxy)acetamido)bicyclo[1.1.1]pentan-1-yl)tetrahydrofuranyl-2-carboxamide] |
| 3.27 | O=C(COc1ccc(Cl)cc1)NC12CC(NC(=O)C3CCC3)(C1)C2 [Example 34, N-(3-(2-(4-chlorophenoxy)acetamido)bicyclo[1.1.1]pentan-1-yl)cyclobutanecarboxamide] |
| 3.36 | O=C(COc1ccc(Cl)cc1)NC12CC(NC(=O)C3CCCN3)(C1)C2 (stereo not shown) [Example 53, N-(3-(2-(4-chlorophenoxy)acetamido)bicyclo[1.1.1]pentan-1-yl)pyrrolidinyl-2-carboxamide hydrochloride] |
